Where no end group is shown, it is not given here.
Columns and labels:
rats [1] = assay: Rat formalin test, intranasal administration of peptide 30 min before formalin; type: in vivo; settings: Table 7; for Duration of the 1st peak of pain reaction: in s
Experimental: (§1) Analgesic activity of newly synthesized peptides was examined as follows. Rats weighing 180-200 g were suboccipitally injected with the study peptide under ether anesthesia using a microdispenser in 10 μl of normal saline. Control animals were similarly injected with the equal amount of normal saline. After 20 minutes, 50 mcl of formalin solution at a dilution of 1:50 was injected into the dorsal surface of the right hind paw. The time of peptide injection and formalin dilution has been developed earlier. Each rat was used only once. The most clear behavioral indicators of pain reaction were expressed in paw tucking, licking, nibbling and jolting. Moreover, the first acute reaction to pain lasting for 6-7 min in control animals was followed by the dormant period: a rat lowered its paw, grooming behavior and nibbling was stopped. Then the reaction was repeated with expression not less than the previous one—it was the second phase of pain reaction.
The moment of paw tucking (beginning of the 1st phase of pain reaction), duration of this reaction, duration of dormancy and time of onset of the second phase of reaction—repeated paw tucking or its absence—were visually recorded in order to obtain quantitative data. Peptide was injected 20 min prior to formalin injection in case of suboccipital method of peptide injection and 30 min prior to formalin injection in case of intranasal method. […]

rats [2] = assay: Rat formalin test, suboccipital injection of peptide 20 min before formalin; type: in vivo; settings: for Duration of the first peak of pain reaction / Time of pain reaction onset: Table 2, suboccipital injection
Experimental: Analgesic activity of newly synthesized peptides was examined in the “formalin test” which allows discovering non-narcotic type of anesthesia (Wheeler-Aceto H., Porrea F., A. Cowan. The rat paw formalin test: comparison of noxious agents. Pain, 40 (1990), 229-238).
as §1
The moment of paw tucking (beginning of the 1st phase of pain reaction), duration of this reaction, duration of dormancy and time of onset of the second phase of reaction—repeated paw tucking or its absence—were visually recorded in order to obtain quantitative data. Peptide was injected 20 min prior to formalin injection in case of suboccipital method of peptide injection and 30 min prior to formalin injection in case of intranasal method.

rats [3] = settings: earlier work of Kotin, Vlasov et al. 1988; cited from earlier work
[4] = earlier work; cited from earlier work
[5] = intranasal in citrate phosphate buffer, 30 min prior to formalin 2%, dose 10 μg

Substance | Beginning of pain reaction (rats [1]; [5]) | Beginning of pain reaction (rats [1]; intranasal, dose 0.1 μg) | Beginning of the 2nd peak (rats [1]; intranasal, dose 0.1 μg) | Duration of the 1st peak of pain reaction (rats [1]; intranasal, dose 0.1 μg) | Beginning of pain reaction (rats [1]; intranasal, dose 1 μg) | Beginning of the 2nd peak (rats [1]; intranasal, dose 1 μg) | Duration of the 1st peak of pain reaction (rats [1]; intranasal, dose 1 μg) | Beginning of the 2nd peak (rats [1]; intranasal, dose 10 μg) | Duration of the 1st peak of pain reaction (rats [1]; intranasal, dose 10 μg) | also measured
D-Thr-D-Glu-D-Leu-D-15 Lys-L-His-D-Leu-NH2 | 8 ± 3 s | 48 ± 18 s | 21.0 ± 5.3 min | 300 ± 10 | 10 ± 2 s | 12.5 ± 1.6, the min | 342 ± 26 | 15.0 ± 1.6 min | 314 ± 32 | Number of rats that do not have the 2nd peak (rats [1]; intranasal, dose 1 μg, remark in the 2nd peak column): first one has none
D-Thr-D-Glu-D-Leu-D-Lys-D-His-D-Leu-NH2 [Complete retro-inversion CT16-21] | 20 ± 9 s | 126 s | 16.2 ± 2.6 min | 249 ± 20 | 12 ± 6 s | 17.4 ± 2.9 min | 300 ± 46 | 14.4 ± 1.0 min | 333 ± 9 | 
CGRP |  |  |  |  |  |  |  |  |  | Beginning of pain reaction (rats [2]; Table 4, dose 1 μg): 5 (2) sec; Beginning of the 2nd peak (rats [2]; Table 4, dose 1 μg): 17 (2) min; Duration of the 1st peak of pain reaction (rats [2]; Table 4, dose 1 μg): 402 (36); Analgesic activity in the formalin test (in words) (rats [2]; rats): does not have analgesic activity
LHKLQT [CT16-21] |  |  |  |  |  |  |  |  |  | Duration of the first peak of pain reaction (rats [2]; rats, dose 0.001 μg/rat): 394 (34) sec; Time of pain reaction onset (rats [2]; rats, dose 0.001 μg/rat): 17 (6) sec; Duration of the first peak of pain reaction (rats [2]; rats, dose 0.01 μg/rat): 328 (21) sec; Time of pain reaction onset (rats [2]; rats, dose 0.01 μg/rat): 19 (8) sec; Duration of the first peak of pain reaction (rats [2]; rats, dose 0.1 μg/rat): 263 (20) a < 0.001 sec; Time of pain reaction onset (rats [2]; rats, dose 0.1 μg/rat): 39 (8) a < 0.001 sec; Beginning of the 2nd peak (rats [2]; Table 3, dose 1 μg per rat): 21 ± 2 min; Duration of the 1st peak (rats [2]; Table 3, dose 1 μg per rat): 284 ± 20 s; Number of animals which do not have the 2nd peak of reaction (rats [2]; Table 3, dose 1 μg per rat): 4; Beginning of pain reaction (rats [2]; Table 3, dose 1 μg per rat, in s): 30 ± 6; Analgesic activity in the rat formalin test (in words) (rats [3]): high analgesic activity; Impact on calcium metabolism [4]: does not have immunologic activity, impact on calcium metabolism

— US20150073123A1, “SYNTHETIC PEPTIDES WITH A NON-NARCOTIC TYPE OF ANALGESIC EFFECT” (priority 2012, published 2015)
